Drawing on patent US11566022B2, “3-(5-methoxy-1-oxoisoindolin-2-yl)piperidine-2,6-dione derivatives and uses thereof” (NOVARTIS AG, priority 2019, dated 2023), this text covers Dmax, remaining activity and DC50 for 38 compounds.

The assay concerns the target HiBit-WIZ fusion protein (Homo sapiens, UniProt O95785+Q96SW2). The experiment in a line: Quantification of WIZ protein levels in HiBit tag fusion protein assay (WIZ HiBit assay in 293T cells). Details: Dmax: dose or concentration left out as unconfirmed. The format is cell-based. Particulars: for Dmax / remaining activity at up to 25 µM: HEK-293T, 293T cells; for Dmax: 100 minus Amax, read-out: % degradation of WIZ (100-Amax); for remaining activity at up to 25 µM: DMSO-normalized, curve-fitted percentage of WIZ-HiBit remaining at 25 uM, read-out: WIZ Amax; for DC50: WIZ HiBit assay in 293T cells, 10-point, 5-fold dose response, highest concentration 25 μM, about 18 hours, read-out: WIZ AC50.

Sequence of HiBit-WIZ fusion protein (O95785 whole entry, the tested form may be a part): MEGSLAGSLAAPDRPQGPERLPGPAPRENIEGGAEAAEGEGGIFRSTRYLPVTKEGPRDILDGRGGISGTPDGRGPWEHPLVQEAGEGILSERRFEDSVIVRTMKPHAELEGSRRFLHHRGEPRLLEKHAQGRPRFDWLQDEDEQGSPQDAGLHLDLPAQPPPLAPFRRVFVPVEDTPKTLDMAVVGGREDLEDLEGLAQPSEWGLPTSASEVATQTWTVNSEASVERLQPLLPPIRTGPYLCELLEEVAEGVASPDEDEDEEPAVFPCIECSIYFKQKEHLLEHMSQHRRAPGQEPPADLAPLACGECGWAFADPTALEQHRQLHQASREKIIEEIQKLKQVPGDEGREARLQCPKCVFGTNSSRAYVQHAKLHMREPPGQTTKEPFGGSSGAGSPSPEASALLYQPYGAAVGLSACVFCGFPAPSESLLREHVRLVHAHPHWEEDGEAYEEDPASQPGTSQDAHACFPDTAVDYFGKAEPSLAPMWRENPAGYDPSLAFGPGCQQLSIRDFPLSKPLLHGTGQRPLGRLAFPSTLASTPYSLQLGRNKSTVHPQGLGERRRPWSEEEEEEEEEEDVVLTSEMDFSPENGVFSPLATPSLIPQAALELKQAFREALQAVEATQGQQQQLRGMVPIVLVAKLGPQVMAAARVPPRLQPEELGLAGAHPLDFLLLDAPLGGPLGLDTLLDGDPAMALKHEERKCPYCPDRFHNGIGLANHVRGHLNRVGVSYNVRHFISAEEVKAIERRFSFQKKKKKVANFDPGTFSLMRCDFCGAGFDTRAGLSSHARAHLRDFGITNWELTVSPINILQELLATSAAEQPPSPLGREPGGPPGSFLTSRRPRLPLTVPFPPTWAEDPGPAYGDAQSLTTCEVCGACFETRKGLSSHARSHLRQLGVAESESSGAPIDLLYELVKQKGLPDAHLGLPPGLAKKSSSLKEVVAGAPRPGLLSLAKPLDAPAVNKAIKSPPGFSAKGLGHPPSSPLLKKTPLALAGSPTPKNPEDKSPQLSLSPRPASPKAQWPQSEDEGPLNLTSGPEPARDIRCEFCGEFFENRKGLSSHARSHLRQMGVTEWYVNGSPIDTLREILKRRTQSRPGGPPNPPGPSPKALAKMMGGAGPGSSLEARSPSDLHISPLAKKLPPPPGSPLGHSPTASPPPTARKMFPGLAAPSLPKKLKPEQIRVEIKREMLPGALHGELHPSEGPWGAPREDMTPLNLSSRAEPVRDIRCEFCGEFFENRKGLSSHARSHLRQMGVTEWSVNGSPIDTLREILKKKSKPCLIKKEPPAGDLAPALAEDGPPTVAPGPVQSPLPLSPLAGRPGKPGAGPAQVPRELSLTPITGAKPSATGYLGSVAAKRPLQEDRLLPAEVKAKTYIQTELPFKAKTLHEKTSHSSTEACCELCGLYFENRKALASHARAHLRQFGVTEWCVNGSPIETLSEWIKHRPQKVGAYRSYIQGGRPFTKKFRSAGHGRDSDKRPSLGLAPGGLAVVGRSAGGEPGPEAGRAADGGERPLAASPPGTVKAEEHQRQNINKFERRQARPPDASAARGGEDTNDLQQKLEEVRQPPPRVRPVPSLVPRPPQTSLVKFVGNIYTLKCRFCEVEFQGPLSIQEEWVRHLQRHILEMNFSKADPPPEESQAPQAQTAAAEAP
Sequence of HiBit-WIZ fusion protein (Q96SW2 whole entry, the tested form may be a part): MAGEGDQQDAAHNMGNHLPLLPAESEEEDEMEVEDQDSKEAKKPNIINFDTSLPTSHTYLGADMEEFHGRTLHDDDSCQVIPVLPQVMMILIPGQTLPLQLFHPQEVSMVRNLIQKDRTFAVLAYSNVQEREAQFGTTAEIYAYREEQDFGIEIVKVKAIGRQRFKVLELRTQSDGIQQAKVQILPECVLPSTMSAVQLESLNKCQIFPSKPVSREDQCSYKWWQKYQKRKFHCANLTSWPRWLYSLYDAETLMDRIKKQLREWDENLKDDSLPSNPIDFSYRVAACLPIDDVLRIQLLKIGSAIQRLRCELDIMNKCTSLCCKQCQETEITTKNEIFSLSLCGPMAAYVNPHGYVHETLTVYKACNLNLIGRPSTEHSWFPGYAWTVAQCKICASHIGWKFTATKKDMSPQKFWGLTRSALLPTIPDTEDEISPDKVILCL
Sequence of HiBit-WIZ fusion protein (Q16531 whole entry partner, the tested form may be a part): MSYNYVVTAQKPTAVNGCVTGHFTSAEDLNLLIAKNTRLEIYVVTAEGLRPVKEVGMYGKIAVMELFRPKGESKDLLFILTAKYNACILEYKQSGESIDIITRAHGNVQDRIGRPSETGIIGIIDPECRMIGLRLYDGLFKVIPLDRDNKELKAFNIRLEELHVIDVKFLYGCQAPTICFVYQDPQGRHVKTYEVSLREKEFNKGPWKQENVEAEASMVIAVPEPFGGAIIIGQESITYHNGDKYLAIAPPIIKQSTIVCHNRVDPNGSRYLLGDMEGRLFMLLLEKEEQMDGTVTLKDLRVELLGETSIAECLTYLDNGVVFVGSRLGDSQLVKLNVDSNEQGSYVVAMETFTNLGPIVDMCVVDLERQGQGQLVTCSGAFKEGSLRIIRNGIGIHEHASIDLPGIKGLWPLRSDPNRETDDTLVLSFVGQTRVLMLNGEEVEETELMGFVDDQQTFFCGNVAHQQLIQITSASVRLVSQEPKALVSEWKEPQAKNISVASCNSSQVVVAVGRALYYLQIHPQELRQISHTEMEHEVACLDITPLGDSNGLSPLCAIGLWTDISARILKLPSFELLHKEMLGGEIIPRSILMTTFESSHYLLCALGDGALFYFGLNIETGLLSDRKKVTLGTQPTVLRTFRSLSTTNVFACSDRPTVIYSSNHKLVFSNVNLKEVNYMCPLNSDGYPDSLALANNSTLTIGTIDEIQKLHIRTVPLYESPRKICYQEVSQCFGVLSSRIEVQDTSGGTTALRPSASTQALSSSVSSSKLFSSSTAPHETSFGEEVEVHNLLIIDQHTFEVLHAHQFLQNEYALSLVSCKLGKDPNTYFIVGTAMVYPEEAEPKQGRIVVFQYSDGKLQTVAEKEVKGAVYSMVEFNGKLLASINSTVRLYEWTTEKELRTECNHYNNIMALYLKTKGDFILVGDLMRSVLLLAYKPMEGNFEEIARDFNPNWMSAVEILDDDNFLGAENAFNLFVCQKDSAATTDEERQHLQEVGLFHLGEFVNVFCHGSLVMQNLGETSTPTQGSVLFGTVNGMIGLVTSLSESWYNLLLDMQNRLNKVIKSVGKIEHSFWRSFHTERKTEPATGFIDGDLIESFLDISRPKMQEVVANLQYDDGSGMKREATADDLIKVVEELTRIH

In the case of `CN(C)c1ncc(CN2CCCC[C@H]2COc2ccc3c(c2)CN(C2CCC(=O)NC2=O)C3=O)cn1` (stereo partly drawn) [Compound I-50m], the Dmax came out at 46.6%, the remaining activity at up to 25 µM was determined as 53.4% and the DC50 was above 25 µM.

`O=C1CCC(N2Cc3cc(OC[C@@H]4CCCCN4Cc4c(F)cccc4Cl)ccc3C2=O)C(=O)N1` (stereo partly drawn) [Compound I-50n]: the Dmax is 98.3%, the remaining activity at up to 25 µM was determined as 1.7% and the DC50 was 0.022 µM.

Turning to `O=C1CCC(N2Cc3cc(OC[C@@H]4CCCCN4Cc4ccc(N5CCCC5=O)cc4)ccc3C2=O)C(=O)N1` (stereo partly drawn) [Compound I-50o], the Dmax was 58.4%, the remaining activity at up to 25 µM turned out to be 41.6% and the DC50 turned out to be 12.5 µM.

`O=C1CCC(N2Cc3cc(OC[C@@H]4CCCCN4Cc4cnn(C5CCCCC5)c4)ccc3C2=O)C(=O)N1` (stereo partly drawn) [Compound I-50p]: the Dmax was 93.2%, the remaining activity at up to 25 µM worked out at 6.8% and the DC50 was determined as 0.047 µM.

With `O=C1CCC(N2Cc3cc(OC[C@@H]4CCCCN4Cc4ccccc4Cn4cncn4)ccc3C2=O)C(=O)N1` (stereo partly drawn) [Compound I-50q], the Dmax stood at 4.5%, the remaining activity at up to 25 µM amounted to 95.5% and the DC50 is above 25 µM.

Consider `COc1cc(C#N)ccc1CN1CCCC[C@H]1COc1ccc2c(c1)CN(C1CCC(=O)NC1=O)C2=O` (stereo partly drawn) [Compound I-50r], for which the Dmax came to 34.4%, the remaining activity at up to 25 µM was 65.6% and the DC50 was above 25 µM.

Turning to `COc1cc(CN2CCCC[C@H]2COc2ccc3c(c2)CN(C2CCC(=O)NC2=O)C3=O)ccc1C` (stereo partly drawn) [Compound I-50s], the Dmax was determined as 84.3%, the remaining activity at up to 25 µM was found to be 15.7% and the DC50 came to 3.8 µM.

With `Cn1ccc2c(CN3CCCC[C@H]3COc3ccc4c(c3)CN(C3CCC(=O)NC3=O)C4=O)cccc21` (stereo partly drawn) [Compound I-50t], the Dmax was 85.2%, the remaining activity at up to 25 µM was determined as 14.8% and the DC50 stood at 0.269 µM.

Turning to `Cc1nccn1-c1ccc(CN2CCCC[C@H]2COc2ccc3c(c2)CN(C2CCC(=O)NC2=O)C3=O)cc1` (stereo partly drawn) [Compound I-50u], the Dmax is 70.1%, the remaining activity at up to 25 µM was found to be 29.9% and the DC50 came out at 2.64 µM.

Consider `O=C1CCC(N2Cc3cc(OC[C@@H]4CCCCN4Cc4ncc[nH]4)ccc3C2=O)C(=O)N1` (stereo partly drawn) [Compound I-50w], for which the Dmax is 25.9%, the remaining activity at up to 25 µM was found to be 74.1% and the DC50 is above 25 µM.

As to `O=C1CCC(N2Cc3cc(OC[C@@H]4CCCCN4Cc4cc(-n5nnnc5C(F)(F)F)ccc4O)ccc3C2=O)C(=O)N1` (stereo partly drawn) [Compound I-50x], the Dmax turned out to be 22%, the remaining activity at up to 25 µM was 78% and the DC50 was above 25 µM.

On to `Cn1nnc2cc(CN3CCCC[C@@H]3COc3ccc4c(c3)CN(C3CCC(=O)NC3=O)C4=O)ccc21` (stereo partly drawn) [Compound I-50y], for which the Dmax turned out to be 85.2%, the remaining activity at up to 25 µM is 14.8% and the DC50 came to 0.179 µM.

With `CN(C)Cc1ncc(-c2ccc(Oc3cc(Cl)cnc3CN3CCCC[C@H]3COc3ccc4c(c3)CN(C3CCC(=O)NC3=O)C4=O)cc2)n1C` (stereo partly drawn) [Compound I-50z], the Dmax stood at 79.2%, the remaining activity at up to 25 µM amounted to 20.8% and the DC50 came out at 3.2 µM.

As for `CCN1CCOC[C@H]1COc1ccc2c(c1)CN(C1CCC(=O)NC1=O)C2=O` (stereo partly drawn) [Compound I-64, 3-(5-(((S)-4-ethylmorpholin-3-yl)methoxy)-1-oxoisoindolin-2-yl)piperidine-2,6-dione], the Dmax turned out to be 21.5%, the remaining activity at up to 25 µM turned out to be 78.5% and the DC50 was above 25 µM.

`O=C1CCC(N2Cc3cc(OC[C@@H]4CCCCN4C(=O)c4cccc(S(=O)(=O)O)c4)ccc3C2=O)C(=O)N1` (stereo partly drawn) [Compound I-72a]: the Dmax turned out to be 11.2%, the remaining activity at up to 25 µM turned out to be 88.8% and the DC50 is above 25 µM.

`O=C1CCC(N2Cc3cc(OC[C@@H]4CCCCN4C(=O)c4ccc(Cl)c(I)c4)ccc3C2=O)C(=O)N1` (stereo partly drawn) [Compound I-72ad]: the Dmax came out at 52.8%, the remaining activity at up to 25 µM was 47.2% and the DC50 is 17.4 µM.

On to `O=C1CCC(N2Cc3cc(OC[C@@H]4CCCCN4C(=O)c4cccc(N5CCOCC5)n4)ccc3C2=O)C(=O)N1` (stereo partly drawn) [Compound I-72ae], for which the Dmax is 14.7%, the remaining activity at up to 25 µM was 85.3% and the DC50 is above 25 µM.

Turning to `O=C1CCC(N2Cc3cc(OC[C@@H]4CCCCN4C(=O)Cc4cc[nH]n4)ccc3C2=O)C(=O)N1` (stereo partly drawn) [Compound I-72af], the Dmax is 7.7%, the remaining activity at up to 25 µM is 92.3% and the DC50 was above 25 µM.

For the compound `CC(Oc1ccccc1Cl)C(=O)N1CCCC[C@H]1COc1ccc2c(c1)CN(C1CCC(=O)NC1=O)C2=O` (stereo partly drawn) [Compound I-72ag], the Dmax was determined as 5.4%, the remaining activity at up to 25 µM amounted to 94.6% and the DC50 was above 25 µM.

Regarding `CCc1ocnc1C(=O)N1CCCC[C@H]1COc1ccc2c(c1)CN(C1CCC(=O)NC1=O)C2=O` (stereo partly drawn) [Compound I-72ah], the Dmax was found to be 22.9%, the remaining activity at up to 25 µM stood at 77.1% and the DC50 is above 25 µM.

Consider `COc1ccc(-c2cc(C(=O)N3CCCC[C@H]3COc3ccc4c(c3)CN(C3CCC(=O)NC3=O)C4=O)[nH]n2)cc1` (stereo partly drawn) [Compound I-72ai], for which the Dmax is 41.6%, the remaining activity at up to 25 µM came out at 58.4% and the DC50 was above 25 µM.

`O=C1CCC(N2Cc3cc(OC[C@@H]4CCCCN4C(=O)c4cc(-c5ccc(Br)cc5)on4)ccc3C2=O)C(=O)N1` (stereo partly drawn) [Compound I-72ak]: the Dmax stood at 78.9%, the remaining activity at up to 25 µM was 21.1% and the DC50 came to 0.686 µM.

`O=C1CCC(N2Cc3cc(OC[C@@H]4CCCCN4C(=O)c4ccc(N5CCOCC5)cc4)ccc3C2=O)C(=O)N1` (stereo partly drawn) [Compound I-72an]: the Dmax stood at 53.8%, the remaining activity at up to 25 µM amounted to 46.2% and the DC50 came to 13.8 µM.

Turning to `Cn1ccc(C(=O)N2CCCC[C@H]2COc2ccc3c(c2)CN(C2CCC(=O)NC2=O)C3=O)cc1=O` (stereo partly drawn) [Compound I-72ao], the Dmax is 8.3%, the remaining activity at up to 25 µM turned out to be 91.7% and the DC50 is above 25 µM.

Take `Cc1noc(-c2ccc(C(=O)N3CCCC[C@H]3COc3ccc4c(c3)CN(C3CCC(=O)NC3=O)C4=O)cc2)n1` (stereo partly drawn) [Compound I-72ar]: the Dmax came out at 71.8%, the remaining activity at up to 25 µM was found to be 28.2% and the DC50 was found to be 2.57 µM.

With `CCCc1cc(C(=O)N2CCCC[C@H]2COc2ccc3c(c2)CN(C2CCC(=O)NC2=O)C3=O)no1` (stereo partly drawn) [Compound I-72au], the Dmax is 39.9%, the remaining activity at up to 25 µM came to 60.1% and the DC50 is above 25 µM.

For `O=C1CCC(N2Cc3cc(OC[C@@H]4CCCCN4C(=O)c4cccc(N5CCCCC5)n4)ccc3C2=O)C(=O)N1` (stereo partly drawn) [Compound I-72av], the Dmax came to 24.3%, the remaining activity at up to 25 µM is 75.7% and the DC50 is above 25 µM.

On to `CCCCc1cnc(C(=O)N2CCCC[C@H]2COc2ccc3c(c2)CN(C2CCC(=O)NC2=O)C3=O)nc1OC` (stereo partly drawn) [Compound I-72aw], for which the Dmax amounted to 60.4%, the remaining activity at up to 25 µM was found to be 39.6% and the DC50 is 8.52 µM.

Consider `CCc1cncc(C(=O)N2CCCC[C@H]2COc2ccc3c(c2)CN(C2CCC(=O)NC2=O)C3=O)c1` (stereo partly drawn) [Compound I-72ay], for which the Dmax turned out to be 17.6%, the remaining activity at up to 25 µM turned out to be 82.4% and the DC50 was above 25 µM.

Take `COc1ccncc1C(=O)N1CCCC[C@H]1COc1ccc2c(c1)CN(C1CCC(=O)NC1=O)C2=O` (stereo partly drawn) [Compound I-72bc]: the Dmax worked out at 3%, the remaining activity at up to 25 µM amounted to 97% and the DC50 was above 25 µM.

In the case of `CC(C)(C#N)c1cc(C(=O)N2CCCC[C@H]2COc2ccc3c(c2)CN(C2CCC(=O)NC2=O)C3=O)ccn1` (stereo partly drawn) [Compound I-72be], the Dmax was determined as 11.8%, the remaining activity at up to 25 µM amounted to 88.2% and the DC50 is above 25 µM.

For the compound `O=C1CCC(N2Cc3cc(OC[C@@H]4CCCCN4C(=O)c4cccc(Cn5cncn5)c4)ccc3C2=O)C(=O)N1` (stereo partly drawn) [Compound I-72bi], the Dmax was found to be 3.9%, the remaining activity at up to 25 µM was 96.1% and the DC50 is above 25 µM.

As for `Cc1c(-c2ccccc2)n[nH]c1C(=O)N1CCCC[C@H]1COc1ccc2c(c1)CN(C1CCC(=O)NC1=O)C2=O` (stereo partly drawn) [Compound I-72by], the Dmax amounted to 52%, the remaining activity at up to 25 µM came out at 48% and the DC50 was 19.8 µM.

As to `CC(C)(C)Cc1cc(C(=O)N2CCCC[C@H]2COc2ccc3c(c2)CN(C2CCC(=O)NC2=O)C3=O)no1` (stereo partly drawn) [Compound I-72bz], the Dmax came to 46.7%, the remaining activity at up to 25 µM was determined as 53.3% and the DC50 was above 25 µM.

In the case of `O=C1CCC(N2Cc3cc(OC[C@@H]4CCCCN4C(=O)c4cnnn4-c4ccccc4)ccc3C2=O)C(=O)N1` (stereo partly drawn) [Compound I-72c], the Dmax was 20.6%, the remaining activity at up to 25 µM is 79.4% and the DC50 is above 25 µM.

Consider `O=C1CCC(N2Cc3cc(OC[C@@H]4CCCCN4C(=O)CCN4CCOCC4)ccc3C2=O)C(=O)N1` (stereo partly drawn) [Compound I-72ca], for which the Dmax stood at 10.2%, the remaining activity at up to 25 µM worked out at 89.8% and the DC50 was above 25 µM.

For the compound `CC(C)c1cc(C(=O)N2CCCC[C@H]2COc2ccc3c(c2)CN(C2CCC(=O)NC2=O)C3=O)no1` (stereo partly drawn) [Compound I-72cf], the Dmax amounted to 35%, the remaining activity at up to 25 µM turned out to be 65% and the DC50 was above 25 µM.

Turning to `Cc1n[nH]c(CC(=O)N2CCCC[C@H]2COc2ccc3c(c2)CN(C2CCC(=O)NC2=O)C3=O)n1` (stereo partly drawn) [Compound I-72cg], the Dmax came out at 2.2%, the remaining activity at up to 25 µM worked out at 97.8% and the DC50 is above 25 µM.
